Laboratory results published in patent publication US7105492B2, “Camptothecin derivatives having antitumor activity” (priority 1999, dated 2006).

Legend:
L1210 = murine leukemia = test: Antitumor activity on tumor models: L1210 leukemia, increase in life span; type: in vivo, mice
Excerpt: (§1) This broad spectrum of anticancer activity was confirmed in mice transplanted with human tumor xenografts, including NSCLC (H460, A549), prostate ca. (JCA-1), glioblastoma (GBM/7), gastric ca. (MKN28), osteosarcoma (U2OS), ovarian ca. (A2780/Dx, A2780/DDP) and colon (HT29, CoBA) carcinomas as well as in murine lung cancer (M109) and leukaemia model (L1210).

HT29 colon ca = test: Antitumor activity on tumor models: HT29; type: in vivo, mice
Excerpt: as §1

topoisomerase i = target: T1, topoisomerase i (Homo sapiens, UniProt P11387); test: Persistence of topoisomerase I-mediated DNA cleavage after addition of 0.6 M NaCl; type: biochemical; settings: for Reversibility / persistence of the DNA cleavages (in words): after sodium chloride (0.6 M), about 10 minutes; for PERSISTENCE (%) of DNA cleavage on selected sites: drug 10 μm, 20 minutes incubation, then sodium chloride (0.6 M), examined after about 10 minutes
T1 sequence (P11387 1-765): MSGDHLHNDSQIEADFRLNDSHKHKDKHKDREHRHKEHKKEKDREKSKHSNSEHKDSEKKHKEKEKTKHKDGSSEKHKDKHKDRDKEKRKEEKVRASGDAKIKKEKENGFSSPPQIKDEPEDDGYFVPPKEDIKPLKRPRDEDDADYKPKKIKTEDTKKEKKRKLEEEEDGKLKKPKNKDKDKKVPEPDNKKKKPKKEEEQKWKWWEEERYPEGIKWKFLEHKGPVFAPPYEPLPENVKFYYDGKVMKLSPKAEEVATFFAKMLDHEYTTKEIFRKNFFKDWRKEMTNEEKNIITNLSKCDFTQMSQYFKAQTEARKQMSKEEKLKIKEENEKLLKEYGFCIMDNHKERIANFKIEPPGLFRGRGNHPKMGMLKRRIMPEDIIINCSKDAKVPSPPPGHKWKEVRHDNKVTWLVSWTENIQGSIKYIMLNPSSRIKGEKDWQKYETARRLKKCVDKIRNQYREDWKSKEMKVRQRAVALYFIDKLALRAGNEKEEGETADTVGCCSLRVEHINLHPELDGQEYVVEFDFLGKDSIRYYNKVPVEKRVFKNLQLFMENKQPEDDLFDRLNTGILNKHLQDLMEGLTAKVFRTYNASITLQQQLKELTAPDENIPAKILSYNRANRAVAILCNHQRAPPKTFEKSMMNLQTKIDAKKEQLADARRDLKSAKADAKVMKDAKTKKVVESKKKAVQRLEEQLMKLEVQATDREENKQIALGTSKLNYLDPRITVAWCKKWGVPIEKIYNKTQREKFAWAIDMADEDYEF
Protocol: An important drawback of conventional camptothecins is the reversibility of the their bond in the ternary complex (drug-DNA-enzyme).
After 20 minutes of incubation of the drug in the reaction mixture containing labelled DNA and the purified enzyme, sodium chloride (0.6 M) was added with the scope of assisting the dissociation of the ternary complex.

CoBA colon ca = test: Antitumor activity on tumor models: CoBA; type: in vivo, mice
Excerpt: as §1

lung carcinoma NCI H460 = test: Antitumoral activity in nude mice implanted s.c. with NCI H460 tumour fragments (Table 1); settings: for Efficacy (TVI %): evaluated 5–10 days after the last treatment
Protocol: For the in vivo studies, the solubilization was carried out in 10% DMSO in bidistilled water, being impossible the solubilization in saline, and the administration for the oral route was carried out at a volume of 10 ml/kg.
Atimic nu/nu Swiss mice (Charles River, Calco, Italia), ageing 10–12 weeks were used. The animals were maintained in laminar flow rooms, according to the guidelines of the United Kingdom Co-ordination Committee Cancer Research. Experimental protocols were approved by the Ethical Committee for animal experimentation of Istituto Nazionale per lo Studio e Cura dei Tumori.
Tumour fragments of about 2×2×2 mm coming from mice to which were inoculated s.c. 10^6 cells NCI H460/topo, were implanted s.c. bilaterally in groups of 5 mice each.
Twice a week, using a Vernier caliper, the width, minimum diameter (l), length and maximum diameter (L) of the tumors were measured, in mm. The tumour volume (mm^3) was calculated according to the formula I^2×L/2. Efficacy of the molecule was evaluated as TVI percent of the treated group versus the control group according to the formula TVI%=100−(T/C×100), wherein T is the mean value of the tumour volume of the treated group and C of control one.

JCA-1 prostate ca = test: Antitumor activity on tumor models: JCA-1; type: in vivo, mice
Excerpt: as §1

H460 = NSCLC = test: Antitumor activity on tumor models: H460; type: in vivo, mice
Excerpt: as §1

GBM/7 glioblastoma = test: Antitumor activity on tumor models: GBM/7; type: in vivo, mice
Excerpt: as §1

A2780 ovarian ca = test: Antitumor activity on tumor models: A2780; type: in vivo, mice; settings: A2780, 2 mg/kg
Excerpt: as §1

A2780/DDP ovarian ca = test: Antitumor activity on tumor models: A2780/DDP; type: in vivo, mice
Excerpt: as §1

IGROV-1 ovarian ca = test: Antitumor activity on tumor models: IGROV-1; type: in vivo, mice
DU145 prostate ca = test: Antitumor activity on tumor models: DU145; type: in vivo, mice; settings: DU145, 2 mg/kg
U87 glioblastoma = test: Antitumor activity on tumor models: U87; type: in vivo, mice
A2780/Dx ovarian ca = test: Antitumor activity on tumor models: A2780/Dx; type: in vivo, mice; settings: for TVI % / no evidence of tumor at the end of the treatment lasting for about 10 days from the last administration: A2780/Dx
Excerpt: as §1
The high cytotoxic potency of the compounds of the present invention, herein represented in an exemplary way with one of the preferrred compounds, CPT 184, is also reflected by the potent antitumor activity. […] Moreover, the compounds of the present invention, in particular the CPT 184, were able to induce 100% CR in the A2780/DX tumor characterized by a MDR-phenotype.

## CC[C@@]1(O)C(=O)OCc2c1cc1n(c2=O)Cc2c-1nc1ccccc1c2C=NOCc1ccccc1 [CPT 172, 7-Benzyloxyiminomethylcamptothecin]
L1210 = murine leukemia; L1210, 25 mg/kg
  ILS % = percent increase in life span: > 400%
HT29 colon ca; HT29, 25 mg/kg
  TVI %: 88%
Topoisomerase i
  Reversibility / persistence of the DNA cleavages (in words): marked persistence
  PERSISTENCE (%) of DNA cleavage on selected sites: 80%
CoBA colon ca; 20 mg/kg
  TVI %: 84%
CoBA colon ca; 25 mg/kg
  TVI %: 93%
Lung carcinoma NCI H460; 2 mg/kg p.o., qd × 5 × 10w
  Toxicity Body weight loss (%): 0%
  Toxicity Lethality: 0/3
  Efficacy (TVI %): 90%
Lung carcinoma NCI H460; 8 mg/kg p.o., q4d × 4
  Efficacy (TVI %): 77%
Lung carcinoma NCI H460; 16 mg/kg p.o., q4d × 4
  Efficacy (TVI %): 88%
Lung carcinoma NCI H460; 24 mg/kg p.o., q4d × 4
  Toxicity Body weight loss (%): 6%
  Toxicity Lethality: 0/4
  Efficacy (TVI %): 97%
JCA-1 prostate ca; JCA-1, 20 mg/kg
  TVI %: 98%
H460 = NSCLC; H460, 25 mg/kg
  TVI %: 97%
GBM/7 glioblastoma; GBM/7, 20 mg/kg
  TVI %: 93%
  no evidence of tumor at the end of the treatment lasting for about 10 days from the last administration: (3/11*)
GBM/7 glioblastoma; GBM/7, 25 mg/kg
  TVI %: 98%
  no evidence of tumor at the end of the treatment lasting for about 10 days from the last administration: (9/12*)

## CC[C@@]1(O)C(=O)OCc2c1cc1n(c2=O)Cc2c-1nc1ccccc1c2C=NO [CPT 181, 7-hydroxyiminomethylcamptothecin, reference compound]
Topoisomerase i
  PERSISTENCE (%) of DNA cleavage on selected sites: 28%
Lung carcinoma NCI H460; 15 mg/kg p.o., q4d × 4
  Toxicity Body weight loss (%): 0%
  Toxicity Lethality: 0/4
  Efficacy (TVI %): 40%
Lung carcinoma NCI H460; 25 mg/kg p.o., q4d × 4
  Toxicity Body weight loss (%): 0%
  Toxicity Lethality: 0/4
  Efficacy (TVI %): 70%

## CC[C@@]1(O)C(=O)OCc2c1cc1n(c2=O)Cc2c-1nc1ccccc1c2C=NOC(C)(C)C [CPT 184, 7-T-Butoxyiminomethylcamptothecin]
L1210 = murine leukemia; L1210, 2 mg/kg
  ILS % = percent increase in life span: > 400%
  cured mice alive 120 d from leukemia injection: *** (>80% of cured mice alive 120 d from leukemia injection.)
A2780 ovarian ca
  TVI %: 100%
  no evidence of tumor at the end of the treatment lasting for about 10 days from the last administration: (1/8*)
HT29 colon ca; HT29, 2 mg/kg
  TVI %: 92%
Topoisomerase i
  Reversibility / persistence of the DNA cleavages (in words): marked persistence
  PERSISTENCE (%) of DNA cleavage on selected sites: 72%
A2780/DDP ovarian ca; 2 mg/kg
  TVI %: 77%
A2780/DDP ovarian ca; 3 mg/kg
  TVI %: 90%
CoBA colon ca; 2 mg/kg
  TVI %: 84%
CoBA colon ca; 3 mg/kg
  TVI %: 87%
Lung carcinoma NCI H460; 2 mg/kg p.o., q4d × 4
  Toxicity Body weight loss (%): 0%
  Toxicity Lethality: 0/5
  Efficacy (TVI %): 100%
Lung carcinoma NCI H460; 5 mg/kg p.o., q10d × 6
  Toxicity Body weight loss (%): 9%
  Toxicity Lethality: 0/4
  Efficacy (TVI %): 99%
JCA-1 prostate ca; JCA-1, 2 mg/kg
  TVI %: 98%
  no evidence of tumor at the end of the treatment lasting for about 10 days from the last administration: (5/8*)
IGROV-1 ovarian ca; IGROV-1, 2 mg/kg
  TVI %: 93%
IGROV-1 ovarian ca; IGROV-1, 3 mg/kg
  TVI %: 96%
DU145 prostate ca
  TVI %: 95%
U87 glioblastoma; U87, 2 mg/kg
  TVI %: 80%
U87 glioblastoma; U87, 3 mg/kg
  TVI %: 87%
H460 = NSCLC; H460, 2 mg/kg
  TVI %: 99%
  no evidence of tumor at the end of the treatment lasting for about 10 days from the last administration: (5/8*)
A2780/Dx ovarian ca; A2780/DX tumor characterized by a MDR-phenotype
  CR (complete regressions) induced: 100%
A2780/Dx ovarian ca; 2 mg/kg
  TVI %: 92%
  no evidence of tumor at the end of the treatment lasting for about 10 days from the last administration: (1/8*)
A2780/Dx ovarian ca; 3 mg/kg
  TVI %: 100%
  no evidence of tumor at the end of the treatment lasting for about 10 days from the last administration: (8/8*)
GBM/7 glioblastoma; GBM/7, 2 mg/kg
  TVI %: 97%
  no evidence of tumor at the end of the treatment lasting for about 10 days from the last administration: (3/10*)
GBM/7 glioblastoma; GBM/7, 3 mg/kg
  TVI %: 98%
  no evidence of tumor at the end of the treatment lasting for about 10 days from the last administration: (2/8*)
